{"source": "PubChem BioAssay (NCI)", "assay_in_all_cases": "growth of human tumour cells (NCI), 384-well format", "key": {"CCRF-CEM leukemia": {"system": "CCRF-CEM leukemia"}, "OVCAR-5 ovarian": {"system": "OVCAR-5 ovarian"}, "ACHN renal": {"system": "ACHN renal"}, "DU-145 prostate": {"system": "DU-145 prostate"}, "K-562 leukemia": {"system": "K-562 leukemia"}, "HCT-15 colon": {"system": "HCT-15 colon"}, "CAKI-1 renal": {"system": "CAKI-1 renal"}, "MOLT-4 leukemia": {"system": "MOLT-4 leukemia"}, "SNB-75 CNS": {"system": "SNB-75 CNS"}, "LOX IMVI melanoma": {"system": "LOX IMVI melanoma"}, "NCI/ADR-RES ovarian": {"system": "NCI/ADR-RES ovarian"}, "HOP-92 NSCLC": {"system": "HOP-92 NSCLC"}, "SN12C renal": {"system": "SN12C renal"}}, "note": "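Abbreviation: GI50, concentration required for 50% inhibition of growth. TGI marks complete inhibition of growth.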", "data": [{"smiles": "CC(=O)N1CCC(Nc2cc(C(=O)NC[C@H](O)CN3CCc4ccccc4C3)ncn2)CC1", "values": [{"measurement": "GI50", "setting": "CCRF-CEM leukemia", "result": "> 100", "unit": "µM"}, {"measurement": "TGI", "setting": "CCRF-CEM leukemia", "result": "> 100", "unit": "µM"}, {"measurement": "GI50", "setting": "OVCAR-5 ovarian", "result": "> 100", "unit": "µM"}, {"measurement": "TGI", "setting": "OVCAR-5 ovarian", "result": "> 100", "unit": "µM"}, {"measurement": "GI50", "setting": "ACHN renal", "result": "> 100", "unit": "µM"}, {"measurement": "TGI", "setting": "ACHN renal", "result": "> 100", "unit": "µM"}, {"measurement": "GI50", "setting": "DU-145 prostate", "result": "> 100", "unit": "µM"}, {"measurement": "TGI", "setting": "DU-145 prostate", "result": "> 100", "unit": "µM"}, {"measurement": "GI50", "setting": "K-562 leukemia", "result": "> 100", "unit": "µM"}, {"measurement": "TGI", "setting": "K-562 leukemia", "result": "> 100", "unit": "µM"}, {"measurement": "GI50", "setting": "HCT-15 colon", "result": "> 100", "unit": "µM"}, {"measurement": "TGI", "setting": "HCT-15 colon", "result": "> 100", "unit": "µM"}, {"measurement": "GI50", "setting": "CAKI-1 renal", "result": "> 100", "unit": "µM"}, {"measurement": "TGI", "setting": "CAKI-1 renal", "result": "> 100", "unit": "µM"}, {"measurement": "GI50", "setting": "MOLT-4 leukemia", "result": "< 0.0138", "unit": "µM"}, {"measurement": "TGI", "setting": "MOLT-4 leukemia", "result": 0.0854, "unit": "µM"}, {"measurement": "GI50", "setting": "SNB-75 CNS", "result": "> 100", "unit": "µM"}, {"measurement": "TGI", "setting": "SNB-75 CNS", "result": "> 100", "unit": "µM"}, {"measurement": "GI50", "setting": "LOX IMVI melanoma", "result": "> 100", "unit": "µM"}, {"measurement": "TGI", "setting": "LOX IMVI melanoma", "result": "> 100", "unit": "µM"}, {"measurement": "GI50", "setting": "NCI/ADR-RES ovarian", "result": "> 100", "unit": "µM"}, {"measurement": "TGI", "setting": "NCI/ADR-RES ovarian", "result": "> 100", "unit": "µM"}, {"measurement": "GI50", "setting": "HOP-92 NSCLC", "result": "> 28.1", "unit": "µM"}, {"measurement": "TGI", "setting": "HOP-92 NSCLC", "result": "> 100", "unit": "µM"}, {"measurement": "GI50", "setting": "SN12C renal", "result": "> 100", "unit": "µM"}, {"measurement": "TGI", "setting": "SN12C renal", "result": "> 100", "unit": "µM"}]}]}
